The target of experiment [1] is T1, Bone morphogenetic protein 2 (Homo sapiens) (UniProt P12643).
T1 sequence (whole entry): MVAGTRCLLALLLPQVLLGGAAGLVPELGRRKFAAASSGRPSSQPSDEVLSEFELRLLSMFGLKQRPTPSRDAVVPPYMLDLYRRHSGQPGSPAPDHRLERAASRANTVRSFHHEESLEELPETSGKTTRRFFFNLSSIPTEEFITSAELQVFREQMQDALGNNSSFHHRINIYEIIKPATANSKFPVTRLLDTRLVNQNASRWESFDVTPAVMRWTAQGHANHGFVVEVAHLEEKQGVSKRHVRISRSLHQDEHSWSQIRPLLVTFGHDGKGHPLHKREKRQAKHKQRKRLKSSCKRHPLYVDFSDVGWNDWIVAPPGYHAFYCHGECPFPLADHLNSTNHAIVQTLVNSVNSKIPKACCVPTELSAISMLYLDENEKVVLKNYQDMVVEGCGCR
Put plainly: Increase in BMP2-mediated osteoblastogenesis in mouse C2C12 cells assessed as increase in OCN mRNA level at 10 uM by SYBR-based RT-PCR. Type of experiment: cell-based.

For experiment [2], the target named is T1, Bone morphogenetic protein 2 (Homo sapiens). The experiment in a line: Increase in BMP2-mediated osteoblastogenesis in mouse C2C12 cells assessed as increase in BMP4 mRNA level at 10 uM by SYBR-based RT-PCR. Type of experiment: cell-based.
The target is the same in experiment [3]. Put plainly: Increase in BMP2-mediated osteoblastogenesis in mouse C2C12 cells assessed as increase in BMP6 mRNA level at 10 uM by SYBR-based RT-PCR. The format is cell-based.
For experiment [4] the target is unchanged. The experiment in a line: Increase in human recombinant BMP2-mediated osteoblastogenesis in mouse C2C12 cells assessed as induction of alkaline phosphatase activity after 6 days. The format is cell-based.
The target is the same in experiment [5]. Put plainly: Increase in BMP2-mediated osteoblastogenesis in mouse C2C12 cells assessed as increase in BMP9 mRNA level at 10 uM by SYBR-based RT-PCR. The format is cell-based.
In experiment [6] the test system is C2C12. Put plainly: Induction of alkaline phosphatase activity in mouse C2C12 cells. Type of experiment: cell-based.
For experiment [7], the target named is T1, Bone morphogenetic protein 2 (Homo sapiens). The experiment in a line: Increase in BMP2-mediated osteoblastogenesis in mouse C2C12 cells assessed as increase in BMP7 mRNA level at 10 uM by SYBR-based RT-PCR. Type of experiment: cell-based.
For experiment [8] the target is unchanged. The experiment in a line: Increase in BMP2-mediated osteoblastogenesis assessed as increase in phosphorylated of Smad level in nucleus at 10 uM after 6 hrs by Western blot analysis. A general note: Immunoblotting shows a protein as a band on a membrane.
For experiment [9] the target is unchanged. Put plainly: Increase in BMP2-mediated osteoblastogenesis assessed as increase in Kv1.5 mRNA expression at 10 uM after 3 days by RT-PCR analysis.
Experiment [10] has the same target. Put plainly: Increase in BMP2-mediated osteoblastogenesis assessed as increase in Kv4.2 mRNA expression at 10 uM after 6 hrs after 3 days by RT-PCR analysis.
Experiment [11] has the same target. Put plainly: Increase in BMP2-mediated osteoblastogenesis assessed as increase in BMP7 protein level in mouse C2C12 cells at 10 uM by Western blot analysis. Type of experiment: cell-based.
Experiment [12] has the same target. The experiment in a line: Increase in BMP2-mediated osteoblastogenesis assessed as increase in Kv1.1 mRNA expression at 10 uM by RT-PCR analysis.
For experiment [13] the target is unchanged. The experiment in a line: Increase in human recombinant BMP2-mediated osteoblastogenesis assessed as increase in alkaline phosphatase activity in mouse C2C12 at 10 uM co-treated with BMP2 antagonist noggin on day 3 measured after 6 days. The format is functional.
For experiment [14] the target is unchanged. Put plainly: Increase in human recombinant BMP2-mediated osteoblastogenesis assessed as increase in alkaline phosphatase activity in mouse C2C12 cells at 10 uM treated with BMP2 antagonist on day 4 post compound challenge measured after 6 days. The format is functional, cell-based.
Experiment [15] has the same target. The experiment in a line: Increase in BMP2-mediated osteoblastogenesis assessed as increase in nuclear translocation of Smad at 10 uM by Western blot analysis.
The target is the same in experiment [16]. Put plainly: Increase in BMP2-mediated osteoblastogenesis assessed as increase in BMP2 protein level in mouse C2C12 cells at 10 uM by Western blot analysis. The format is cell-based.
Experiment [17] shares this target. The experiment in a line: Increase in BMP2-mediated osteoblastogenesis assessed as increase in Kv4.3 mRNA expression at 10 uM after 6 hrs after 3 days by RT-PCR analysis.
The target is the same in experiment [18]. The experiment in a line: Increase in human recombinant BMP2-mediated osteoblastogenesis assessed as increase in alkaline phosphatase mRNA expression in mouse C2C12 cells at 10 uM treated with BMP2 antagonist noggin on day 4 post compound challenge measured after 6 days by SYBR-based RT-PCR. Type of experiment: functional, cell-based.
For experiment [19] the target is unchanged. Put plainly: Increase in BMP2-mediated osteoblastogenesis assessed as increase in phosphorylation of Smad at 10 uM by Western blot analysis.
Experiment [20] shares this target. The experiment in a line: Increase in human recombinant BMP2-mediated osteoblastogenesis assessed as increase in alkaline phosphatase mRNA expression in mouse C2C12 at 10 uM co-treated with BMP2 antagonist noggin on day 3 measured after 6 days by SYBR-based RT-PCR. Type of experiment: functional.

Here are results for 4 compounds from ChEMBL document CHEMBL1926531, “Butamben derivatives enhance BMP-2-stimulated commitment of C2C12 cells into osteoblasts with induction of voltage-gated potassium channel expression” (Bioorg Med Chem Lett, 2011).

Active and inactive are the calls of the source. The calls are words filed in the database; no cut-off is given here.

In the case of `CC(C)OC(=O)c1ccc(N)cc1`, the outcome in experiment [1], in [2], in experiment [3], in experiment [5] and in [7] was Active. Also, the Activity result in [4] was “Dose-dependent effect”. For the same compound, the result in experiment [6] was inactive.
Consider `COC(=O)c1ccc(N)cc1`, for which the result in experiment [1], in experiment [2], in [3], in experiment [5] and in experiment [7] was Active. Also, the Activity result in experiment [4] was “Dose-dependent effect”. Besides, in experiment [6], the outcome was inactive.
With `CCCCOC(=O)c1ccc(NC(C)=O)cc1`, the result in [8], in experiment [1], in experiment [9], in experiment [10], in experiment [2] and in [11] was Active. Moreover, the outcome in [3], in [12], in [5], in experiment [15], in experiment [16] and in experiment [17] was Active. Besides, the outcome in experiment [19] and in experiment [7] was Active. Besides, the Activity result in experiment [4] is “Dose-dependent effect”. For the same compound, the outcome in [6], in [13], in experiment [14], in [18] and in [20] was inactive.
In the case of `CCCCOC(=O)c1ccc(N)cc1`, the outcome in experiment [1], in experiment [2], in [3], in experiment [5] and in [7] was Active. The Activity result in [4] is “Dose-dependent effect”. In addition, in [6], the outcome was inactive.
